# Laboratory results published in patent publication US11306064B2, “Benzothia(di)azepine compounds and their use as bile acid modulators” (Albireo AB, priority 2018, dated 2022).
# What was measured:
# Assay type in all cases: cell-based
# HepaRG cells = experiment: HepaRG-based assay: 3H-taurocholic acid uptake in differentiated HepaRG cells; conditions: Homo sapiens, HepaRG, 0.3 μM 3H-taurocholic acid and 7.5 μM cold taurocholic acid, 30 minutes
# Experimental: HepaRG-Based Assay Protocol
# A cryopreserved vial of differentiated HepaRG cells (Biopredic International HPR116080) was thawed in HepaRG Thawing/Plating/General Purpose Medium (Biopredic International ADD670C) supplemented with 200 mM Glutamax (Gibco 35050061) following the protocol provided by Biopredic International. 70,000 cells per well were seeded in 96-wells plate (Corning CLS3809) in 100 μL of HepaRG Thawing/Plating/General Purpose Medium supplemented with 200 mM Glutamax and incubated at 37° C. in 5% CO2 for 24 hours. Post incubation, the seeding media was replaced by HepaRG Maintenance/Metabolism Medium (Biopredic International ADD620C) and incubated for 6 days, with fresh HepaRG Maintenance/Metabolism Medium replenishment every 48 hours. After 7 days incubation post seeding, incubation media was decanted from the wells and cells were washed two times with 250 μL of William's E Basal Media (Gibco 12551032). After decanting William's E Basal Media each time, plates were tapped against paper towel to ensure maximum removal of residual media.
# Incubation mix was prepared by adding test inhibitor dilutions (3-fold serial dilution in DMSO (Sigma D2650)) in William's E media (basal) containing 0.3 μM 3H-taurocholic acid (ARC ART-1368) and 7.5 μM cold taurocholic acid (Sigma T4009) (maintaining 0.2% final DMSO concentration). 50 μl of incubation mix containing test inhibitors was then added to the wells (in duplicate) and the plates were incubated for 30 minutes in 5% CO2 incubator at 37° C. After incubation, the reaction was stopped by keeping the plates on ice water mix for 2-3 minutes and then the incubation mix was aspirated completely from the wells. The wells were washed two times with 250 μL of chilled unlabelled 1 mM taurocholic acid dissolved in HEPES (Gibco 15630080)-buffered (10 mM) HBSS (Gibco 14175079) (pH 7.4). The plates were tapped against a paper towel after every wash to ensure maximum removal of blocking buffer.
# (§1) 100 μL of MicroScint-20 (PerkinElmer 6013621) was added to the wells and kept overnight at room temperature before reading the plates in TopCount NXT™ Microplate Scintillation and Luminescence Counter from PerkinElmer under 3H Test protocol (set at 120 seconds reading time per well, with normal plate orientation).
# (§2) Preparation of Test Compound Dilutions
# (§3) All test compounds were provided in powder form at room temperature. 10 mM DMSO stocks of the test compounds were prepared, aliquoted and stored at −20° C. From the 10 mM DMSO stock of the compounds, a 3-fold serial dilution in DMSO was prepared to get a total of 10 dilutions of the test compounds. 0.5 μL of this dilution in DMSO was added to 250 μL of FBS-free basal media containing 3H-taurocholic acid and cold taurocholic acid to prepare the incubation mixture.
# Human ASBT = molecular target: T1, Human ASBT (Homo sapiens, UniProt Q12908); experiment: ASBT (h/m) assay: 3H-taurocholic acid uptake in human ASBT-overexpressing cells; conditions: 0.25 μM 3H-taurocholic acid and 5 μM cold taurocholic acid, 20 minutes, read-out: hASBT IC50
# T1 construct: expressed in transfected cells; kept under Puromycin selection
# T1 sequence (Q12908 1-348): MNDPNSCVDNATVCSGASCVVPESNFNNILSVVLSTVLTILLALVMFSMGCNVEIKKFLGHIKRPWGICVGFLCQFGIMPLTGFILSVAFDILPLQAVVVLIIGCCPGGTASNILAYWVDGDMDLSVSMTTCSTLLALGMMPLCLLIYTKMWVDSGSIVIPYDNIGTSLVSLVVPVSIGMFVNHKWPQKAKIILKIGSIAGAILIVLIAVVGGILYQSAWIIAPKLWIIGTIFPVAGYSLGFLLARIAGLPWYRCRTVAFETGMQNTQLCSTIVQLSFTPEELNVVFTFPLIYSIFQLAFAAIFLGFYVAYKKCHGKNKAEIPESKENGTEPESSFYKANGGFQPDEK
# Experimental: ASBT (h/m) Assay Protocol
# 10,000 cells (Human or Mouse ASBT-overexpressing cells) were seeded in 96-wells plate (Corning CLS3809) in 200 μL MEM-alpha medium (Gibco 12571-063) supplemented with 10% FBS (Gibco 10438026) containing Puromycin (Gibco A1113803) (10 μg/mL) and incubated at 37° C. in 5% CO2 for 48 hours. After incubation, media was decanted from the wells and cells were washed two times with 300 μL of basal MEM-alpha medium (FBS-free). After decanting basal MEM-alpha medium each time, plates were tapped against paper towel to ensure maximum removal of residual media. Test inhibitor dilutions (highest test concentration being 10 μM, 3-fold serial dilution, 10 points) prepared in DMSO (Sigma D2650) were added in incubation mix (maintaining 0.2% final DMSO concentration) containing 0.25 μM 3H-taurocholic acid (ARC ART-1368) and 5 μM of cold taurocholic acid (Sigma T4009). 50 μL of incubation mix containing test inhibitors was then added to the wells (in duplicate) and the plates were incubated for 20 minutes in a CO2 incubator at 37° C. After incubation, the reaction was stopped by keeping the plates on ice water mix for 2-3 minutes and then the incubation mix was aspirated completely from the wells. The wells were washed two times with 250 μL of chilled unlabelled 1 mM taurocholic acid dissolved in HEPES (Gibco 15630080)-buffered (10 mM) HBSS (Gibco 14175079) (pH 7.4). The plates were tapped against a paper towel after every wash to ensure maximum removal of blocking buffer.
# 100 μL of MicroScint-20 (PerkinElmer 6013621) was added to the wells and kept overnight at room temperature before reading the plates in TopCount NXT™ Microplate Scintillation and Luminescence Counter from PerkinElmer under 3H Test protocol (set at 120 seconds reading time per well).
# as §2, §3
# Human LBAT = molecular target: T2, Human LBAT (Homo sapiens, UniProt Q14973); experiment: LBAT (h/m) assay: 3H-taurocholic acid uptake in human LBAT-overexpressing cells; conditions: 0.3 μM 3H-taurocholic acid and 7.5 μM cold taurocholic acid, 20 minutes, read-out: hLBAT IC50
# T2 construct: expressed in transfected cells; kept under Geneticin selection
# T2 sequence (Q14973 1-349): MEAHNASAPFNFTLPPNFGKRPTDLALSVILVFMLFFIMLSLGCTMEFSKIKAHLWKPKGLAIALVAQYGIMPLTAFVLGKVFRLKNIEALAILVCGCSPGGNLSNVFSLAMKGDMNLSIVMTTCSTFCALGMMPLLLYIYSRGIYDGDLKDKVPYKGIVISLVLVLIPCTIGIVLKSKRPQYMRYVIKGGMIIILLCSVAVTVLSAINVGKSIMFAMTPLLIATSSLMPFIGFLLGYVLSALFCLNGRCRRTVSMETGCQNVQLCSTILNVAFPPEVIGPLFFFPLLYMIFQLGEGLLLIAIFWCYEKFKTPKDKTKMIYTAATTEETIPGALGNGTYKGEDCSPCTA
# Experimental: LBAT (h/m) Assay Protocol
# 20,000 cells (Human or Mouse LBAT-overexpressing cells) were seeded in 96-wells plate (Corning CLS3809) in 100 μL MEM-alpha medium (Gibco 12571-063) supplemented with 10% FBS (Gibco 10438026) containing Geneticin (Gibco 10131-027) (1 mg/mL) and incubated at 37° C. in 5% CO2 for 24 hours. After incubation, media was decanted from the wells and cells were washed two times with 300 μL of basal MEM-alpha medium (FBS-free). After decanting basal MEM-alpha medium each time, plates were tapped against paper towel to ensure maximum removal of residual media. For human LBAT, incubation mix was prepared by adding test inhibitor dilutions (3-fold serial dilution in DMSO (Sigma D2650), 10 points) in MEM-alpha (without FBS) containing 0.3 μM 3H-taurocholic acid (ARC ART-1368) and 7.5 μM cold taurocholic acid (Sigma T4009) (maintaining 0.2% final DMSO concentration). For mouse LBAT, incubation mix was prepared by adding test inhibitor dilutions (3-fold serial dilution in DMSO, 10 points) in MEM-alpha (without FBS) containing 0.3 μM 3H-taurocholic acid and 25 μM cold taurocholic acid maintaining 0.2% final DMSO concentration).
# 50 μL of incubation mix containing test inhibitors was then added to the wells (in duplicate) and the plates were incubated for 20 minutes in a CO2 incubator at 37° C. After incubation, the reaction was stopped by keeping the plates on ice water mix for 2-3 minutes and then the incubation mix was aspirated completely from the wells. The wells were washed two times with 250 μL of chilled unlabelled 1 mM taurocholic acid dissolved in HEPES (Gibco 15630080)-buffered (10 mM) HBSS (Gibco 14175079) (pH 7.4). The plates were tapped against a paper towel after every wash to ensure maximum removal of blocking buffer.
# as §1, §2, §3
Compound,IC50 (HepaRG cells) [nM],IC50 (Human ASBT) [nM],IC50 (Human LBAT) [nM]
"CCCCC1(CC)CN(c2ccccc2)c2cc(SC)c(O/C=C(\F)C(=O)O)cc2S(=O)(=O)C1 (single isomer, unassigned) [Example 42, (Z)-3-((3-butyl-3-ethyl-7-(methylthio)-1,1-dioxido-5-phenyl-2,3,4,5-tetrahydro-1,5-benzothiazepin-8-yl)oxy)-2-fluoroacrylic acid]",378,220,10
"CCCCC1(CC)CN(c2ccccc2)c2cc(Cl)c(O/C=C(\F)C(=O)O)cc2S(=O)(=O)C1 (racemic) [Example 46, (Z)-3-((3-butyl-7-chloro-3-ethyl-1,1-dioxido-5-phenyl-2,3,4,5-tetrahydro-1,5-benzothiazepin-8-yl)oxy)-2-fluoroacrylic Acid]",590,97,24
"CCCCC1(CCCC)CN(c2ccc(C(=O)NC(C)C)cc2)c2cc(SC)c(O/C=C/C(=O)O)cc2S(=O)(=O)C1 [Example 69, (E)-3-((3,3-dibutyl-5-(4-(isopropylcarbamoyl)phenyl)-7-(methylthio)-1,1-dioxido-2,3,4,5-tetrahydro-1,5-benzothiazepin-8-yl)oxy)acrylic Acid]",630,> 3000,364
"CCCCC1(CCCC)CN(c2ccc(N)cc2)c2cc(SC)c(O/C=C/C(=O)O)cc2S(=O)(=O)C1 [Example 2, (E)-3-((5-(4-aminophenyl)-3,3-dibutyl-7-(methylthio)-1,1-dioxido-2,3,4,5-tetrahydro-1,5-benzothiazepin-8-yl)oxy)acrylic Acid]",> 6670,354,1400
"CCCCC1(CC)CN(c2ccc(NC(=O)OC(C)(C)C)cc2)c2cc(Br)c(O/C=C/C(=O)O)cc2S(=O)(=O)C1 (stereo not shown) [Example 23, (E)-3-((7-bromo-5-(4-((tert-butoxycarbonyl)amino)phenyl)-3-butyl-3-ethyl-1,1-dioxido-2,3,4,5-tetrahydro-1,5-benzothiazepin-8-yl)oxy)acrylic Acid]",1200,,100
"CCCCC1(CCCC)CN(c2ccc(NC(=O)CC(C)(C)C)cc2)c2cc(SC)c(O/C=C/C(=O)O)cc2S(=O)(=O)C1 [Example 30, (E)-3-((3,3-dibutyl-5-(4-(3,3-dimethylbutanamido)phenyl)-7-(methylthio)-1,1-dioxido-2,3,4,5-tetrahydro-1,5-benzothiazepin-8-yl)oxy)acrylic Acid]",336,,107
"CCCCC1(CCCC)CN(c2ccc(NC(=O)C(C)C)cc2)c2cc(SC)c(O/C=C(\F)C(=O)O)cc2S(=O)(=O)C1 [Example 31, (Z)-3-((3,3-dibutyl-5-(4-isobutyramidophenyl)-7-(methylthio)-1,1-dioxido-2,3,4,5-tetrahydro-1,5-benzothiazepin-8-yl)oxy)-2-fluoroacrylic Acid]",310,,17
"CCCCOC(=O)Nc1ccc(N2CC(CCCC)(CCCC)CS(=O)(=O)c3cc(O/C=C/C(=O)O)c(SC)cc32)cc1 [Example 29, (E)-3-((5-(4-((butoxycarbonyl)amino)phenyl)-3,3-dibutyl-7-(methylthio)-1,1-dioxido-2,3,4,5-tetrahydro-1,5-benzothiazepin-8-yl)oxy)acrylic Acid]",666,,205
"CCCCC1(CCCC)CN(c2ccc(NC(=O)C(C)C)cc2)c2cc(SC)c(O/C=C/C(=O)O)cc2S(=O)(=O)C1 [Example 33, (E)-3-((3,3-dibutyl-5-(4-isobutyramidophenyl)-7-(methylthio)-1,1-dioxido-2,3,4,5-tetrahydro-1,5-benzothiazepin-8-yl)oxy)acrylic Acid]",691,,214
"CCCCC1(CC)CN(c2ccc(NC(=O)C(C)(C)C)cc2)c2cc(SC)c(O/C=C/C(=O)O)cc2S(=O)(=O)C1 (stereo not shown) [Example 34, (E)-3-((3-butyl-3-ethyl-7-(methylthio)-1,1-dioxido-5-(4-pivalamidophenyl)-2,3,4,5-tetrahydro-1,5-benzothiazepin-8-yl)oxy)acrylic Acid]",469,,76
"CCCC[C@]1(CC)CN(c2ccccc2)c2cc(SC)c(O/C=C/C(=O)O)cc2S(=O)(=O)N1C (single isomer, unassigned) [Example 90]",1400,,49
"CCCCC1(CCCC)CN(c2ccc(NC(=O)C3CC3)cc2)c2cc(SC)c(O/C=C(\F)C(=O)O)cc2S(=O)(=O)C1 [Example 36, (Z)-3-((3,3-dibutyl-5-(4-(cyclopropanecarboxamido)phenyl)-7-(methylthio)-1,1-dioxido-2,3,4,5-tetrahydro-1,5-benzothiazepin-8-yl)oxy)-2-fluoroacrylic Acid]",877,,39
